In ChEMBL document CHEMBL5465560, “Selectivity Literature for EUbOPEN Chemogenomic Library” (2024):
One block for each molecule: values may come before it.

Key:
[1] = target: Cannabinoid receptor 1 (Homo sapiens, UniProt P21554); assay: Selectivity interaction (Cannabinoid CB1 calcium flux assay, agonist and antagonist mode ) EUB0000877a CNR1
[2] = target: Mitogen-activated protein kinase 1 (Homo sapiens, UniProt P28482); conditions: at 10 µM
[3] = target: T1, Tyrosine-protein kinase ZAP-70 (Homo sapiens) (UniProt P43403); assay: Selectivity interaction (ProQinase) EUB0000171b ZAP70
T1 sequence (whole entry): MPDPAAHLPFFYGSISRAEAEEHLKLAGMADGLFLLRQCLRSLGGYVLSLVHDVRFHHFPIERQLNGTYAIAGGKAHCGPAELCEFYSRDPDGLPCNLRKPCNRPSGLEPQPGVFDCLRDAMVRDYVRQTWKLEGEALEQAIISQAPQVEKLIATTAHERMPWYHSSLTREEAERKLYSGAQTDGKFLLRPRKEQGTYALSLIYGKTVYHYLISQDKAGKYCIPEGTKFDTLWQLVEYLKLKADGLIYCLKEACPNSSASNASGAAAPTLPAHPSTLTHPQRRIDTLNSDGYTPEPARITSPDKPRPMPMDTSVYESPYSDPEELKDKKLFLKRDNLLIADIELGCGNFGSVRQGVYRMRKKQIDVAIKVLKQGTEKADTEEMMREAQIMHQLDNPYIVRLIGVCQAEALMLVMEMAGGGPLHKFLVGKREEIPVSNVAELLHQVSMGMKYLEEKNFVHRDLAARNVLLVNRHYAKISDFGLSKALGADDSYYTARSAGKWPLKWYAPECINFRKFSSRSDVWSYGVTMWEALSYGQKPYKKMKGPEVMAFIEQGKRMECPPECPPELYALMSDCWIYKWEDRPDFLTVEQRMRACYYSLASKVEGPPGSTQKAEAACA

[4] = target: Cyclin-dependent kinase 2 (Homo sapiens, UniProt P24941); assay: Selectivity interaction (Kinase panel (DSF assay)) EUB0001559a CDK2
[5] = target: Glutamate receptor ionotropic, NMDA 1 (Homo sapiens) (UniProt Q05586); assay: Selectivity interaction (Panel of kinases, GPCRs, ion channels and transporters (enzymatic assay)) EUB0000223bCl GRIN1
[6] = target: Casein kinase II subunit alpha' (Homo sapiens) (UniProt P19784); assay: Selectivity interaction (KinomeScan (DiscoverX)) EUB0000045b CSNK2A2
[7] = target: Tyrosine-protein kinase ABL1 (Homo sapiens, UniProt P00519); assay: Selectivity interaction (Kinase panel (KiNativ target engagement assay in Jurkat cells)) EUB0001635a ABL1; assay type: cell-based; conditions: Selectivity number of off-targets 0.0, Selectivity number of targets 233.0, Source Knowledge https://www.sciencedirect.com/science/article/pii/S2451945619300674?via%3Dihub, at 1 µM
[8] = target: E3 ubiquitin-protein ligase TRIM33 (Homo sapiens) (UniProt Q9UPN9); assay: Selectivity interaction (Bromodomain panel (DSF asssay)) EUB0000270b TRIM33
[9] = target: Serine/threonine-protein kinase/endoribonuclease IRE1 (Homo sapiens) (UniProt O75460); assay: Selectivity interaction (KinomeScan (DiscoverX)) EUB0000092b ERN1; conditions: at 10 µM
[10] = target: AP2-associated protein kinase 1 (Homo sapiens, UniProt Q2M2I8); assay: Selectivity interaction (KinomeScan (DiscoverX)) EUB0000092b AAK1; conditions: at 10 µM
[11] = target: Serine/threonine-protein kinase OSR1 (Homo sapiens) (UniProt O95747); assay: Selectivity interaction (KinomeScan (DiscoverX)) EUB0000092b OXSR1; conditions: at 10 µM
[12] = target: Homeodomain-interacting protein kinase 3 (Homo sapiens, UniProt Q9H422); assay: Selectivity interaction (KinomeScan (DiscoverX)) EUB0000092b HIPK3; conditions: at 10 µM
[13] = target: Mitogen-activated protein kinase 7 (Homo sapiens) (UniProt Q13164); conditions: at 10 µM
[14] = target: T2, Serine/threonine-protein kinase RIO1 (Homo sapiens) (UniProt Q9BRS2); assay: Selectivity interaction (KinomeScan (DiscoverX)) EUB0001619a RIOK1; conditions: at 1 µM
T2 sequence (whole entry): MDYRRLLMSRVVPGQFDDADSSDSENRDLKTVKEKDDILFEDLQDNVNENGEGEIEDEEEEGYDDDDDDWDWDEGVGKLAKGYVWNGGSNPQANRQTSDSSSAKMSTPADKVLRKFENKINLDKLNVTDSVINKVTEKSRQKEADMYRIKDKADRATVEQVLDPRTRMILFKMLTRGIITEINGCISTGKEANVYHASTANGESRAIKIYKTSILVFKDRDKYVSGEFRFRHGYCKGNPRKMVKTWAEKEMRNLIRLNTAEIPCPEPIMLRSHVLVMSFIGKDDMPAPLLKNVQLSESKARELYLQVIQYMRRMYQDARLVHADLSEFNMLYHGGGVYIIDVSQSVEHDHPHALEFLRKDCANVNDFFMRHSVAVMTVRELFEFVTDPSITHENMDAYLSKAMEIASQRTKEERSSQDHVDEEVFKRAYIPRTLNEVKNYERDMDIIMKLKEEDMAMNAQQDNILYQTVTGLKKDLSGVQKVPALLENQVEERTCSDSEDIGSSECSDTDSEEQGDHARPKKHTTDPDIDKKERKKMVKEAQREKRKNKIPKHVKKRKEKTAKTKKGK

Chain of Casein kinase II subunit alpha' (Homo sapiens) (P19784 whole entry, looked up): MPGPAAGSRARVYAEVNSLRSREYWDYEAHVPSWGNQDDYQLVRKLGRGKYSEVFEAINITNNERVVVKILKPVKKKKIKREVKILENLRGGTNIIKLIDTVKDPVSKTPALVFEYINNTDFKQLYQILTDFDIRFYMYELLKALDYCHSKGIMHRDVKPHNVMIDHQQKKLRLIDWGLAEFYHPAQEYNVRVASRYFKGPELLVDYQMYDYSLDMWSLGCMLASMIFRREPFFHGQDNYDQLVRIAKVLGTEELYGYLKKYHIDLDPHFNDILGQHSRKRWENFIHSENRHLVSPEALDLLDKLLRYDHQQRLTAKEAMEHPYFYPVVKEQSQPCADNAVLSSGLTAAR
Chain of Mitogen-activated protein kinase 7 (Homo sapiens) (Q13164 2-816 limits assumed): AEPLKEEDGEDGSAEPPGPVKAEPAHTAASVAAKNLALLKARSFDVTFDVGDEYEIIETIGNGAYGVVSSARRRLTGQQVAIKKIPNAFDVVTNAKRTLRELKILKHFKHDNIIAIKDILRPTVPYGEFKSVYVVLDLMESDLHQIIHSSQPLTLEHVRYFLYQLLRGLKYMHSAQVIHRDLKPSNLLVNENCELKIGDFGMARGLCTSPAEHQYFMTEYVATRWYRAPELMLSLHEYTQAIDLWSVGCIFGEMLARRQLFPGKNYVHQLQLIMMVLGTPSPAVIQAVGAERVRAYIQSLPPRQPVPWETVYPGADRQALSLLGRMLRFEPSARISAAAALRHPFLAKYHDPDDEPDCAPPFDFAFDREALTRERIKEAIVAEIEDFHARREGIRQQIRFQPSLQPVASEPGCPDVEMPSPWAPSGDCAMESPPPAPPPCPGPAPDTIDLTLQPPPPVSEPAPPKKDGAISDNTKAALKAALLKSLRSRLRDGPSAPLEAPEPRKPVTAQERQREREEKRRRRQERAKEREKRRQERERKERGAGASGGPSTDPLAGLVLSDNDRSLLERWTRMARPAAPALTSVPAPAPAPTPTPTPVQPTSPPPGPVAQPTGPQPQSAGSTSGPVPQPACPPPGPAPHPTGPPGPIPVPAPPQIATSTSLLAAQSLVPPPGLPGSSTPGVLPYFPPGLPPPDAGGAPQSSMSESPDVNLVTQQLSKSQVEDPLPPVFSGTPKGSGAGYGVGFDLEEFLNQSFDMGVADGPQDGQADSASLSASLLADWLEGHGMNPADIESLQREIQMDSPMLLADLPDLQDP
Chain of Tyrosine-protein kinase ABL1 (P00519 whole entry): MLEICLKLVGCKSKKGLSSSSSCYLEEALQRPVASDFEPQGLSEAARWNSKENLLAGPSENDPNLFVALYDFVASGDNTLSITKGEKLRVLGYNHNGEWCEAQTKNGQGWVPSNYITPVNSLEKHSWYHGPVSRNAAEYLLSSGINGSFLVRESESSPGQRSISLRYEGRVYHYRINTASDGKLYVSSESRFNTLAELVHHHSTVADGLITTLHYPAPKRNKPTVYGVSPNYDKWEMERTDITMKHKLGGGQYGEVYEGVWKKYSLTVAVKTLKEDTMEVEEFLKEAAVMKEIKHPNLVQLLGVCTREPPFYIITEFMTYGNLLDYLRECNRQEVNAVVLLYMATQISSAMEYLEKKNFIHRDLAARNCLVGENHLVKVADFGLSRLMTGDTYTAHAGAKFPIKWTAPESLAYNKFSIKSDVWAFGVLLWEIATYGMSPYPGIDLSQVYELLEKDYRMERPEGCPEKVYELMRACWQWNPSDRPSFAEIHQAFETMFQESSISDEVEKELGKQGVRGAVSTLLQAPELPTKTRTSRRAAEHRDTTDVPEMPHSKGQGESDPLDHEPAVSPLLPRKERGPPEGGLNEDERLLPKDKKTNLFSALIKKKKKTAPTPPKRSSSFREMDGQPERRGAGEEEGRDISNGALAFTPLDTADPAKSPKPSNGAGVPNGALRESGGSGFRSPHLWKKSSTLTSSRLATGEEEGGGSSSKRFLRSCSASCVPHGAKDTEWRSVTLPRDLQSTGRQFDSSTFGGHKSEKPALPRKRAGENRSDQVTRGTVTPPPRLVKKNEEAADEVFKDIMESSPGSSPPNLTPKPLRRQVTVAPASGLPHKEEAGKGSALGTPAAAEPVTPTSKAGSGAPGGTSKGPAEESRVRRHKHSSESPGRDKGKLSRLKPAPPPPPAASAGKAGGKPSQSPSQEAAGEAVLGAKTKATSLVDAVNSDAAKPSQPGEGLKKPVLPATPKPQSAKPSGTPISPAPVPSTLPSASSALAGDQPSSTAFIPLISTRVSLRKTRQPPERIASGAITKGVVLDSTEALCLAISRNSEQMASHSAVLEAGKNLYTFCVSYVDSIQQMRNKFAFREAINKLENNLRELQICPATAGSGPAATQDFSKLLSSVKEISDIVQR
Chain of Mitogen-activated protein kinase 1 (P28482 whole entry): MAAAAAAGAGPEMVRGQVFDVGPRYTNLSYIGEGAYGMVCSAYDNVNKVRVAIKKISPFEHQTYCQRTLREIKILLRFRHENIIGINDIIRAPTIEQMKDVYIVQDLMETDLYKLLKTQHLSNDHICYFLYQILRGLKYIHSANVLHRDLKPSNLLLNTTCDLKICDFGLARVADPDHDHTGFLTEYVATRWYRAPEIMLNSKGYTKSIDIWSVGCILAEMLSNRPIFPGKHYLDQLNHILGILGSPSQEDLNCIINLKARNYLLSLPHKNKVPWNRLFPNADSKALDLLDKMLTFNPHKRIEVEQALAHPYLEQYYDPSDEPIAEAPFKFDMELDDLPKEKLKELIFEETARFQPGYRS
Chain of Cannabinoid receptor 1 (P21554 whole entry): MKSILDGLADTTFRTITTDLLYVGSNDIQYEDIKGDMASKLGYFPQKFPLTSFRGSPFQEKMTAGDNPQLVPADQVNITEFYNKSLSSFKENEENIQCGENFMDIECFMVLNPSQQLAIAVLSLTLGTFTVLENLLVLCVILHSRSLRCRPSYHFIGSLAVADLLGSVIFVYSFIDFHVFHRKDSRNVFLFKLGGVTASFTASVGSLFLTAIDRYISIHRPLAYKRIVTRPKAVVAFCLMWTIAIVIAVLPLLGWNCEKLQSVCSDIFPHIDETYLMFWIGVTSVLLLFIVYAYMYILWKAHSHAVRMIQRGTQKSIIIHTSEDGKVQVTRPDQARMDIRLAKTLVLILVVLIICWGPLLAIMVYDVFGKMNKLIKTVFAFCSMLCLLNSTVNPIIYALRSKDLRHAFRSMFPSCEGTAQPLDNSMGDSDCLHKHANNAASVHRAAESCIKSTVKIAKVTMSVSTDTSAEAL
Chain of E3 ubiquitin-protein ligase TRIM33 (Homo sapiens) (Q9UPN9 whole entry): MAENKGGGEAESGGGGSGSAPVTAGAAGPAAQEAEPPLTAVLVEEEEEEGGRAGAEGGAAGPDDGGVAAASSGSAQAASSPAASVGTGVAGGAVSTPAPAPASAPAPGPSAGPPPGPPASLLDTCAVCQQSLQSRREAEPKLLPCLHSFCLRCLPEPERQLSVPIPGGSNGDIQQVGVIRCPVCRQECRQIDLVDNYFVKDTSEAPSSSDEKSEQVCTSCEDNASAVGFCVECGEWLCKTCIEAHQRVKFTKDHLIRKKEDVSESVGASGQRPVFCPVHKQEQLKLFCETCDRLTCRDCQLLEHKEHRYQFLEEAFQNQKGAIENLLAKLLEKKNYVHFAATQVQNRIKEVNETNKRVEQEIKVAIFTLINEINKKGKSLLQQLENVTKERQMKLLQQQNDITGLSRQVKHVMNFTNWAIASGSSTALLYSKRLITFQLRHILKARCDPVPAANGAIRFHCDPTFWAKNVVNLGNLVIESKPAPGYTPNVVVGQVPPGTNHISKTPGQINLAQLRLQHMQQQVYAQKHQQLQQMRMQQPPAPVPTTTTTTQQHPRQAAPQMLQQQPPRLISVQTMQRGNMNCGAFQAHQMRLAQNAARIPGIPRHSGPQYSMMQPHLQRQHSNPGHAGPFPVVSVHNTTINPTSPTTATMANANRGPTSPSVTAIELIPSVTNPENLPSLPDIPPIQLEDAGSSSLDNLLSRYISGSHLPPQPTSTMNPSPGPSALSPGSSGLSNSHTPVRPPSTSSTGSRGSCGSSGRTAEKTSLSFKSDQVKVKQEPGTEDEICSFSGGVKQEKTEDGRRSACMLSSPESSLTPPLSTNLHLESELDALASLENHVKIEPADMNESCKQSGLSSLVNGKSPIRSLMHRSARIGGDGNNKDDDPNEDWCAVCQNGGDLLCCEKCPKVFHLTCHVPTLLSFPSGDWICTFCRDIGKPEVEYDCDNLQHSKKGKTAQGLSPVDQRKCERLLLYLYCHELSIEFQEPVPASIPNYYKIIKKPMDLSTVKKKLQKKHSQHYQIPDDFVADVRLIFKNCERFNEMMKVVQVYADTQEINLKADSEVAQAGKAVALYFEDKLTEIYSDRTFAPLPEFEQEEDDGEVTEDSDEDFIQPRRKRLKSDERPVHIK
Chain of Serine/threonine-protein kinase OSR1 (Homo sapiens) (O95747 2-527 limits assumed): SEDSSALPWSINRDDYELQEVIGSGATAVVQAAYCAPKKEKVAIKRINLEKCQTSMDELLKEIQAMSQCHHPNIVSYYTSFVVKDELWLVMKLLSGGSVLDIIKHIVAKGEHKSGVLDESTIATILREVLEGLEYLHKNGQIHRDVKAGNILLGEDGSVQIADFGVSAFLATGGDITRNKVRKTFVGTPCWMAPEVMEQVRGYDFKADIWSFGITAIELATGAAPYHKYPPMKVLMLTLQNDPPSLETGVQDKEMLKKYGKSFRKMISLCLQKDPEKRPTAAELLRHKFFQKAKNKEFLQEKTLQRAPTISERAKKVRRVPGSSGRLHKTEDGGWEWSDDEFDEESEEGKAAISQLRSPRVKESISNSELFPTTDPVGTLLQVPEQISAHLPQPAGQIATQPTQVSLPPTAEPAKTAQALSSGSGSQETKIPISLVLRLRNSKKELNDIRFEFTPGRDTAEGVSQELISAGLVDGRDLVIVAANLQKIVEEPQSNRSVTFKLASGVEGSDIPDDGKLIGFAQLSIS

IC50 [1]: > 30 µM
Structure (SMILES): CCC(=O)N1CC[C@H](Nc2ncnc3c2CN(c2cnc(OC)c(C(F)(F)F)c2)CC3)C1 [LENIOLISIB]

% of control [2]: 100%
Structure (SMILES): CCN(CC)CCCCNc1ncc2cc(-c3cc(OC)cc(OC)c3)c(NC(=O)NC(C)(C)C)nc2n1

% of control ([3]; at 1 µM): 88%
% of control ([3]; at 5 µM): 93%
Structure (SMILES): C=CC(=O)Nc1cccc(C(=O)Nc2ccc(Nc3cc(-c4[nH]c(SC)nc4C)ccn3)cc2)c1

dTM [4]: -0.3 K
Structure (SMILES): CN(C(=O)c1cnn2cccnc12)c1cc2c(cc1N1CCOCC1)C(=O)N(C[C@@H](F)C(C)(C)O)C2

Structure (SMILES): COc1cc(C(=O)N2CC[C@@H](O)[C@@H](N)C2)cc2nc(-c3cc4ccccc4n3CC3CC3)n(C)c12
pXC50 [5]: 4.8 M

Structure (SMILES): C=CC(=O)Nc1cc(-n2c(=O)ccc3cnc4ccc(-c5ccc(NS(C)(=O)=O)cc5)cc4c32)ccc1C
% of control ([6]; at 1 µM): 100%
% of control ([6]; at 10 µM): 67%

Structure (SMILES): C=CC(=O)Nc1ccc(C(=O)Nc2[nH]nc3c2CN(C(=O)N[C@H](CN(C)C)c2ccccc2)C3(C)C)cc1
% of engagement [7]: -19.4%

dTM [8]: -0.48 K
Structure (SMILES): Cc1cc(CN)cc(C)c1-c1ncn(C)c1-c1cncn1C

Structure (SMILES): CCC(=O)N1CCN(c2ccc(-n3c(=O)ccc4cnc5ccc(-c6cnc7ccccc7c6)cc5c43)cc2C(F)(F)F)CC1
% of control [9]: 100%
% of control [10]: 75%
% of control [11]: 100%
% of control [12]: 86%

Structure (SMILES): Cc1cc([C@@H](C)Nc2ccccc2C(=O)O)c2nc(N3CCOCC3)cc(=O)n2c1 [AZD-6482]
% of control [13]: 100%

Structure (SMILES): N#Cc1cccc(-c2c[nH]c3ncnc(N4CCOCC4)c23)c1
% of control [14]: 38%
